{"source": "paper PMC10119927", "about": "“Compact Rotaxane Superbases” (Journal of the American Chemical Society, 2023)", "key": {"[1]": {"experiment": "Hydrolytic decomposition in 1 M NaOD in 9:1 v/v CD3OD/D2O"}, "[2]": {"experiment": "pKaH+ determination by Lambert's method with reference bases (1H NMR)", "settings": "for pKaH+: Lambert's method", "description": "The pKaH^+ values shown were determined in CD3CN using Lambert’s method[8] with appropriate reference bases (see Supporting Information, Section 2.0)."}, "[3]": {"experiment": "Base-mediated elimination of HBr from 4-bromophenethyl bromide: deprotonation kinetics and protonation vs alkylation", "settings": "for Half-life, t1/2: calculated based on second-order kinetics; for half-life (h) (25 °C) / half-life (h) (80 °C): deprotonation of 4-bromophenethyl bromide"}, "[4]": {"settings": "cited from earlier work"}, "[5]": {"settings": "hydrolytic decomposition, 1 M NaOD, 9:1 CD3OD/D2O, 25 °C"}, "[6]": {"settings": "80 °C, 1 M NaOD in 9:1 d4-methanol:D2O, pseudo-first-order"}, "[7]": {"settings": "Table 1, conventional superbases"}, "[8]": {"settings": "Table S1, conventional superbases"}, "[9]": {"settings": "hydrolytic decomposition, 1 M NaOD, 9:1 CD3OD/D2O, 80 °C"}, "[10]": {"settings": "25 °C, 1 M NaOD in 9:1 d4-methanol:D2O, pseudo-first-order"}}, "note": "Where “and” joins values, the source holds several entries; their conditions need not be identical. Identical values can stand only once. Entries after “also recorded” stand apart in the source; their conditions may differ. Like-named read-outs stand apart in the source and are kept apart here."}
{"smiles": "C1COCCOCCOCCOCCOCCOCCO1.FC(F)(F)c1cc(CNCc2cc(C(F)(F)F)cc(C(F)(F)F)c2)cc(C(F)(F)F)c1", "note": "[21C7⊂3]", "values": [{"measurement": "hydrolytic stability (in words)", "setting": "[1]; 1 M NaOD, 9:1 CD3OD/D2O", "value": "consumed completely within a matter of minutes; also recorded: decompose quickly"}, {"measurement": "half-life (25 °C)", "setting": "[1]; [5]", "value": "<0.083", "unit": "h"}, {"measurement": "pKaH+ (MeCN)", "setting": "[2]; Table 1, rotaxanes", "value": 24.9}, {"measurement": "pKaH+", "setting": "[2]; in CD3CN", "value": "24.9 ± 0.1"}, {"measurement": "increase in the basicity of the secondary amine upon encapsulation", "setting": "[2]; rotaxane vs thread 3, from pKaH+ values", "value": "10^13 fold"}, {"measurement": "Half-life, t1/2", "setting": "[3]; 80 °C", "value": 169.69, "unit": "days"}, {"measurement": "half-life (h) (25 °C)", "setting": "[3]; 25 °C", "value": ">5000", "unit": "h"}, {"measurement": "half-life (h) (80 °C)", "setting": "[3]; 80 °C", "value": 4073, "unit": "h"}, {"measurement": "rate of substrate deprotonation relative to the other rotaxanes in the series", "setting": "[3]; in words", "value": "much more slowly"}]}
{"smiles": "NCCCCN", "note": "[1,4-diaminobutane]", "values": [{"measurement": "pKaH+", "setting": "[4]; in CD3CN, reference base", "value": 20.1}]}
{"smiles": "C1COCCOCCOCCOCCOCCOCCO1.Cc1cc(C)cc(C[NH2+]Cc2cc(C)cc(C)c2)c1.F[P-](F)(F)(F)(F)F", "note": "[21C7⊂6•HPF6]", "values": [{"measurement": "Half-life", "setting": "[1]; [6]", "value": "> 170", "unit": "h"}, {"measurement": "pKaH+ (MeCN)", "setting": "[2]; Table S2, rotaxane HPF6 salts", "value": 32.2}]}
{"smiles": "C1CCC2=NCCCN2CC1", "note": "[DBU, 1,8-diazabicyclo(5.4.0)undec-7-ene, reference compound]", "values": [{"measurement": "pKaH+ (MeCN)", "setting": "[4]; [7]", "value": "24.3[1]"}, {"measurement": "pKaH+ (MeCN)", "setting": "[4]; [8]", "value": 24.3}, {"measurement": "pKaH+ (MeCN)", "setting": "[4]; Table S2, reference superbases", "value": 24.3}, {"measurement": "Half-life", "setting": "[1]; buffer, Half-life, 25 °C, 1 M NaOD in 9:1 d4-methanol:D2O, pseudo-first-order", "value": 10.9, "unit": "h"}, {"measurement": "Half-life", "setting": "[1]; buffer, half-life (25 °C), hydrolytic decomposition, 1 M NaOD, 9:1 CD3OD/D2O, 25 °C", "value": 11, "unit": "h"}, {"measurement": "Half-life, t1/2", "setting": "[3]; 25 °C", "value": 26.47, "unit": "days"}, {"measurement": "half-life (h) (25 °C)", "setting": "[3]; 25 °C", "value": 635, "unit": "h"}]}
{"smiles": "C1COCCOCCOCCOCCOCCOCCOCCO1.FC(F)(F)c1cc(C[NH2+]Cc2cc(C(F)(F)F)cc(C(F)(F)F)c2)cc(C(F)(F)F)c1.F[P-](F)(F)(F)(F)F", "note": "[24C8⊂3•HPF6]", "values": [{"measurement": "Half-life", "setting": "[1]; [6]", "value": "> 170", "unit": "h"}, {"measurement": "pKaH+ (MeCN)", "setting": "[2]; Table S2, rotaxane HPF6 salts", "value": 20.5}]}
{"smiles": "C1COCCOCCOCCOCCOCCOCCOCCO1.CC(C)(C)c1cc(CNCc2cc(C(C)(C)C)cc(C(C)(C)C)c2)cc(C(C)(C)C)c1", "note": "[24C8⊂2]", "values": [{"measurement": "hydrolytic stability (in words)", "setting": "[1]; 1 M NaOD, 9:1 CD3OD/D2O", "value": "decompose quickly"}, {"measurement": "half-life (25 °C)", "setting": "[1]; [5]", "value": 6, "unit": "h"}, {"measurement": "pKaH+ (MeCN)", "setting": "[2]; Table 1, rotaxanes", "value": 26.3}, {"measurement": "pKaH+", "setting": "[2]; in CD3CN", "value": "26.3 ± 0.22 and 26.3 ± 0.2"}, {"measurement": "Half-life, t1/2", "setting": "[3]; 80 °C", "value": 10.8, "unit": "days"}, {"measurement": "half-life (h) (25 °C)", "setting": "[3]; 25 °C", "value": ">5000", "unit": "h"}, {"measurement": "half-life (h) (80 °C)", "setting": "[3]; 80 °C", "value": 260, "unit": "h"}, {"measurement": "rate of substrate deprotonation relative to the other rotaxanes in the series", "setting": "[3]; in words", "value": "much more slowly"}]}
{"smiles": "C1COCCOCCOCCOCCOCCOCCOCCO1.COc1c(C(C)(C)C)cc(CNCc2cc(C(F)(F)F)cc(C(F)(F)F)c2)cc1C(C)(C)C", "note": "[24C8⊂5]", "values": [{"measurement": "pKaH+", "setting": "[2]; in CD3CN", "value": "23.2 ± 0.3 and 23.2 ± 0.2"}]}
{"smiles": "C1COCCOCCOCCOCCOCCOCCOCCO1.FC(F)(F)c1cc(CNCc2cc(C(F)(F)F)cc(C(F)(F)F)c2)cc(C(F)(F)F)c1", "note": "[24C8⊂3]", "values": [{"measurement": "hydrolytic stability (in words)", "setting": "[1]; 1 M NaOD, 9:1 CD3OD/D2O", "value": "stable"}, {"measurement": "half-life (25 °C)", "setting": "[1]; [5]", "value": ">170", "unit": "h"}, {"measurement": "half-life (80 °C)", "setting": "[1]; [9]", "value": ">170", "unit": "h"}, {"measurement": "pKaH+ (MeCN)", "setting": "[2]; Table 1, rotaxanes", "value": 20.5}, {"measurement": "pKaH+", "setting": "[2]; in CD3CN", "value": "20.5 ± 0.1"}, {"measurement": "Half-life, t1/2", "setting": "[3]; 25 °C", "value": 7.317, "unit": "days"}, {"measurement": "half-life (h) (25 °C)", "setting": "[3]; 25 °C", "value": 176, "unit": "h"}]}
{"smiles": "C1COCCOCCOCCOCCOCCOCCOCCO1.CC(C)(C)c1cc(CNCc2cc(C(F)(F)F)cc(C(F)(F)F)c2)cc(C(C)(C)C)c1", "note": "[24C8⊂4]", "values": [{"measurement": "pKaH+", "setting": "[2]; in CD3CN", "value": "22.9 ± 0.3 and 22.9 ± 0.1"}]}
{"smiles": "C1COCCOCCOCCOCCOCCOCCO1.Cc1cc(C)cc(CNCc2cc(C)cc(C)c2)c1", "note": "[21C7⊂6]", "values": [{"measurement": "hydrolytic stability (in words)", "setting": "[1]; 1 M NaOD, 9:1 CD3OD/D2O", "value": "stable; also recorded: excellent chemical stability"}, {"measurement": "half-life (25 °C)", "setting": "[1]; [5]", "value": ">170", "unit": "h"}, {"measurement": "half-life (80 °C)", "setting": "[1]; [9]", "value": ">170", "unit": "h"}, {"measurement": "pKaH+ (MeCN)", "setting": "[2]; Table 1, rotaxanes", "value": 32.2}, {"measurement": "basicity higher than either non-interlocked component", "setting": "[2]; in CD3CN", "value": "~13 orders of magnitude"}, {"measurement": "pKaH+", "setting": "[2]; in CD3CN", "value": "32.2 ± 0.6"}, {"measurement": "Half-life, t1/2", "setting": "[3]; 25 °C", "value": 0.00625, "unit": "days"}, {"measurement": "half-life (h) (25 °C)", "setting": "[3]; 25 °C", "value": 0.15, "unit": "h"}, {"measurement": "rate of deprotonation of 4-bromophenethyl bromide relative to the conventional organic superbases", "setting": "[3]; in words", "value": "several thousand times faster"}]}
{"smiles": "C1COCCOCCOCCOCCOCCOCCOCCO1.CC(C)(C)c1cc(C[NH2+]Cc2cc(C(C)(C)C)cc(C(C)(C)C)c2)cc(C(C)(C)C)c1.F[P-](F)(F)(F)(F)F", "note": "[24C8⊂2•HPF6]", "values": [{"measurement": "Half-life", "setting": "[1]; [10]", "value": 6.2, "unit": "h"}, {"measurement": "pKaH+ (MeCN)", "setting": "[2]; Table S2, rotaxane HPF6 salts", "value": 26.3}]}
{"smiles": "CN(C)P(=NC(C)(C)C)(N(C)C)N(C)C", "note": "[P1-^tBu, tert-butylimino-tris(dimethylamino)phosphorane, reference compound]", "values": [{"measurement": "pKaH+ (MeCN)", "setting": "[4]; [7]", "value": "27.0[1]"}, {"measurement": "pKaH+ (MeCN)", "setting": "[4]; [8]", "value": 27}, {"measurement": "pKaH+ (MeCN)", "setting": "[4]; Table S2, reference superbases", "value": 27.0}, {"measurement": "Half-life", "setting": "[1]; [6]", "value": "> 170", "unit": "h"}, {"measurement": "half-life (25 °C)", "setting": "[1]; [5]", "value": ">170", "unit": "h"}, {"measurement": "half-life (80 °C)", "setting": "[1]; [9]", "value": ">170", "unit": "h"}, {"measurement": "Half-life, t1/2", "setting": "[3]; 25 °C", "value": 17.45, "unit": "days"}, {"measurement": "half-life (h) (25 °C)", "setting": "[3]; 25 °C", "value": 419, "unit": "h"}]}
{"smiles": "C1COCCOCCOCCOCCOCCOCCO1.FC(F)(F)c1cc(C[NH2+]Cc2cc(C(F)(F)F)cc(C(F)(F)F)c2)cc(C(F)(F)F)c1.F[P-](F)(F)(F)(F)F", "note": "[21C7⊂3•HPF6]", "values": [{"measurement": "Half-life", "setting": "[1]; [10]", "value": "< 0.083", "unit": "h"}, {"measurement": "pKaH+ (MeCN)", "setting": "[2]; Table S2, rotaxane HPF6 salts", "value": 24.9}]}
{"smiles": "CN(C)c1cccc2cccc(N(C)C)c12", "note": "[proton-sponge]", "values": [{"measurement": "pKaH+", "setting": "[4]; in MeCN", "value": 18.6}]}
{"smiles": "FC(F)(F)c1cc(C[NH2+]Cc2cc(C(F)(F)F)cc(C(F)(F)F)c2)cc(C(F)(F)F)c1.F[P-](F)(F)(F)(F)F.c1ccc2c(c1)OCCOCCOCCOc1ccccc1OCCOCCOCCO2", "note": "[DB24C8⊂3•HPF6]", "values": [{"measurement": "Half-life", "setting": "[1]; [6]", "value": "> 170", "unit": "h"}, {"measurement": "pKaH+ (MeCN)", "setting": "[2]; Table S2, rotaxane HPF6 salts", "value": 20.3}]}
{"smiles": "F[P-](F)(F)(F)(F)F.O=C(CC[NH2+]Cc1cc(C(F)(F)F)cc(C(F)(F)F)c1)Nc1cc(C(F)(F)F)cc(C(F)(F)F)c1.c1ccc2c(c1)OCCOCCOCCOc1ccccc1OCCOCCOCCO2", "note": "[DB24C8⊂8•HPF6]", "values": [{"measurement": "Half-life", "setting": "[1]; [6]", "value": "> 170", "unit": "h"}, {"measurement": "pKaH+ (MeCN)", "setting": "[2]; Table S2, rotaxane HPF6 salts", "value": 20.7}]}
